Holding throughout (assay type): functional
Test [1] concerns Rattus norvegicus. Put plainly: Evolution of glycemia 2 hr after first administration at the dose of 20 mg/kg in rat.
Test [2] has as its system Rattus norvegicus. Briefly: Evolution of glycemia 2 hr after the last administration for 4 days chronic treatment at the dose of 200 mg/kg in rat.
For test [3], the system named is Rattus norvegicus. Put plainly: Evolution of glycemia 2 hr after the last administration for 4 days chronic treatment at the dose of 20 mg/kg in rat.
The subject of test [4] is Rattus norvegicus. Briefly: Evolution of glycemia 2 hr after first administration at the dose of 200 mg/kg in rat.

SMILES strings stand for the structures.

As for `Cn1cc(C(=O)O)c(=O)[nH]1`, the Glyceamia evolution is reported as 0% in test [1], -16% in test [2], -12% in test [3] and -12% in test [4].
Take `O=C(O)c1cn(Cc2nn[nH]n2)nc1OCc1ccccc1`: the Glyceamia evolution in test [1] was 0%; in test [2] it was -7%; in test [3], -7%; in test [4] it was -2%.
With `Cn1cc(C(=O)O)c(OCc2ccccc2)n1`, the Glyceamia evolution is recorded as -4% in test [1], -4% in test [2], 2% in test [3] and -5% in test [4].
With `N#Cc1ccccc1-c1ccc(Cn2cc(C(=O)O)c(OCc3ccccc3)n2)cc1`, the Glyceamia evolution in test [1] is on record as -5%; in test [2], -3%; in test [3], -10%; in test [4], -4%.
For `O=C(O)c1cn(Cc2ccccc2)nc1OCc1ccccc1` the same measures were -6%, -9%, -5% and -14%.
For `COc1nn(CC=C(C)C)cc1C(=O)O`, in that order: 3%, -11%, -3% and -8%.
For `COc1nn(Cc2ccc(-c3ccccc3C#N)cc2)cc1C(=O)O`, in that order: -5%, -3%, -10% and 1%.
Regarding `COc1nn(C)cc1C(=O)O`, the Glyceamia evolution in test [1] is on record as -7%; in test [2], -10%; in test [3] it was -10%; in test [4], -5%.
Consider `O=C(CCn1cc(C(=O)O)c(OCc2ccccc2)n1)Nc1ccc(Cl)cc1`, for which the Glyceamia evolution in test [1] is -16%; in test [2], -19%; in test [3], -10%; in test [4], -19%.
Turning to `COC(=O)CCn1cc(C(=O)O)c(OCc2ccccc2)n1`, the Glyceamia evolution is -3% in test [1], -3% in test [2], -7% in test [3] and -13% in test [4].
Consider `COc1[nH]ncc1C(=O)O`, for which the Glyceamia evolution in test [1] is listed as -19%; in test [2] it was -8%; in test [3], -20%; in test [4] it was -4%.
In the case of `CN(C)C(=N)NC(=N)N` [METFORMIN], the Glyceamia evolution in test [2] and in test [4] was -24% each time.
`CCOC(=O)Cn1cc(C(=O)O)c(OCc2ccccc2)n1`: the Glyceamia evolution is given as -8% in test [1], -3% in test [2], -6% in test [3] and 0% in test [4].
For `N#Cc1ccccc1-c1ccc(COc2n[nH]cc2C(=O)O)cc1` the same measures were -7%, -5%, -11% and 0%.
With `CCOC(=O)CCCn1cc(C(=O)O)c(OCc2ccccc2)n1`, the Glyceamia evolution in test [1] is -1%; in test [2], -6%; in test [3], -3%; in test [4], -1%.
With `O=C(O)c1c[nH]nc1OCc1ccccc1`, the Glyceamia evolution in test [1] is on record as 1%; in test [2] it was -15%; in test [3] it was -24%; in test [4], -1%.
Consider `C=CCn1cc(C(=O)O)c(OC)n1`, for which the Glyceamia evolution in test [1] is given as 3%; in test [2], 6%; in test [3], 1%; in test [4], 5%.
For `O=C(O)c1c[nH]nc1O`, in that order: -12%, 2%, -9% and 7%.

Values taken from ChEMBL document CHEMBL1134855, “Synthesis and hypoglycemic evaluation of substituted pyrazole-4-carboxylic acids” (2002).
